Our source for the IC50 values is patent US20080234262A1 (Wyeth, priority 2007, published 2008).

One test concerns the target PI3K (Homo sapiens, UniProt P42336). The test can be described thus: Fluorescence polarization assay for PI3K.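 Further: PI3K kinase reaction on PIP2 with ATP, 30-60 min, product sensed by GST-GRP with red probe in fluorescence polarization (mP), controls without enzyme and at zero time.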 Type of test: biochemical. The conditions noted are these: PI3Kα; read-out: PI3Kα IC50. On the technique in general: Fluorescence polarisation rises when a labelled molecule tumbles more slowly, as on binding a larger partner.
The next test has as its system prostate line LNCap. Kind of test: In vitro cell culture growth assay (MTS), LNCap.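 Further: viable cell density read by absorbance at 490 nm, growth expressed as percent of vehicle-treated cells on the same plate.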 The following applies: LNCap cells, three days after drug treatment. Format: cell-based, human.
The next test concerns breast line MDA468. The test can be described thus: In vitro cell culture growth assay (MTS), MDA468. The conditions noted are these: MDA468 cells, three days after drug treatment. Type of test: cell-based, human. The procedure, abridged:
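Steps: plate cells; add inhibitors the next day; incubate 3 days; add MTS dye, which viable cells convert metabolically; measure absorbance at 490 nm; calculate percent of control growth relative to vehicle-treated cells in the same plate.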

A word on the IC50: it is the concentration needed to halve the response being measured.

Sequence of PI3K (P42336 whole entry): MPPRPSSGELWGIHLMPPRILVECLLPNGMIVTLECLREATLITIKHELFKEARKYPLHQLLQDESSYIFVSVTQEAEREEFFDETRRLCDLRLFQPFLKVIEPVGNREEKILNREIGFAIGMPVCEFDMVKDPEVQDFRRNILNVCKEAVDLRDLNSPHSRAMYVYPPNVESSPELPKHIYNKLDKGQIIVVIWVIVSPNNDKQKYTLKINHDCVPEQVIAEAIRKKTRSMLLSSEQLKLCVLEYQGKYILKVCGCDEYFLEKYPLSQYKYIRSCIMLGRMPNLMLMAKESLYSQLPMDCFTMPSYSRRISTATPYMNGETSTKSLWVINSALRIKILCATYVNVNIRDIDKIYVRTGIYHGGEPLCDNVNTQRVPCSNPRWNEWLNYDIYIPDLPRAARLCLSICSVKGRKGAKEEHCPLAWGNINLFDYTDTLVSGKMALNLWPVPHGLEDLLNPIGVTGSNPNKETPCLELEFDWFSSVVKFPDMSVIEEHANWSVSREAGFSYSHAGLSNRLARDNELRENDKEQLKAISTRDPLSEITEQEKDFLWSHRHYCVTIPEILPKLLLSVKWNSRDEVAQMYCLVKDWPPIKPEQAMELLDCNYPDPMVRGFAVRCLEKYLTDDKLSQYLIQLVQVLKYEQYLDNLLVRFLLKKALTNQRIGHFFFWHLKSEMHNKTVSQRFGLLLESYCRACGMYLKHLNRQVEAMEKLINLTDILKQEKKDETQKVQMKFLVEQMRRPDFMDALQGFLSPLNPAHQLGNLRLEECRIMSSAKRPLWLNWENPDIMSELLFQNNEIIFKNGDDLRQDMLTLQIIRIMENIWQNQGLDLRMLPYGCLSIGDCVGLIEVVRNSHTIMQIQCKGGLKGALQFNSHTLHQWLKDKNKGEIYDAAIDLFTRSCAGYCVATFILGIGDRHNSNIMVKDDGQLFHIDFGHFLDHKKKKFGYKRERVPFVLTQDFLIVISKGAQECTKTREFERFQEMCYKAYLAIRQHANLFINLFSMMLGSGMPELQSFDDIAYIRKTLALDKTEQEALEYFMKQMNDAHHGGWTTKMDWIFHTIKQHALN
Sequence of PI3K (P27986 whole entry partner): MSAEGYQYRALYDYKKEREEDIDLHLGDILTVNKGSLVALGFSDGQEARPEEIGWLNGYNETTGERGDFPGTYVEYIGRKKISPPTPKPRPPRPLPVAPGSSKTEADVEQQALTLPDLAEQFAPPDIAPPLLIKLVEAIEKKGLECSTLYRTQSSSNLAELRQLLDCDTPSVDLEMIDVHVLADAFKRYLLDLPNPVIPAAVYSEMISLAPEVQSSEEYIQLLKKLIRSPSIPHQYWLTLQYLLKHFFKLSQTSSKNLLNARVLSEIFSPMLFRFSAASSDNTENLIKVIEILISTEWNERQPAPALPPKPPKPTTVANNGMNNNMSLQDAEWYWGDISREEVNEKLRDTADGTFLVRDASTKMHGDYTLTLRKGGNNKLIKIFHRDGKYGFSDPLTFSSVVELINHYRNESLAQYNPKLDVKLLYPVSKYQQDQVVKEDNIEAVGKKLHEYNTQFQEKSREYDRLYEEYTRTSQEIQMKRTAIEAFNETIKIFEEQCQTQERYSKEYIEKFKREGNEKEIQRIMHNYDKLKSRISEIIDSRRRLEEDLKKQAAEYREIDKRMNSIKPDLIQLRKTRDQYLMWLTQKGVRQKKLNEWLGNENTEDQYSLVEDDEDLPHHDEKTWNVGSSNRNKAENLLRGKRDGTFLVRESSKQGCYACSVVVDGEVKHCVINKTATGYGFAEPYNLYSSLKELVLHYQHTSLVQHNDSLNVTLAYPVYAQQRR

In the case of `O=C(c1ccc(Cl)nc1)N1CCC(n2ncc3c(N4CCOCC4)nc(-c4ccc5[nH]ccc5c4)nc32)CC1` [Example 196, 1-{1-[(6-chloropyridin-3-yl)carbonyl]piperidin-4-yl}-6-(1H-indol-5-yl)-4-morpholin-4-yl-1H-pyrazolo[3,4-d]pyrimidine], the IC50 at PI3K was 1280 nM; in the test on prostate line LNCap (Homo sapiens, LNCaP, 72 h), 750 nM; in the test on breast line MDA468 (Homo sapiens, 72 h), 3000 nM.

Consider `CC(C)(C)OC(=O)N1CCC(n2ncc3c(N4CCOCC4)nc(-c4ccc(NC(=O)Nc5ccc(CO)cc5)cc4)nc32)CC1` [Compound 953, tert-butyl 4-{6-[4-({[4-(hydroxymethyl)phenyl]carbamoyl}amino)phenyl]-4-morpholin-4-yl-1H-pyrazolo[3,4-d]pyrimidin-1-yl}piperidine-1-carboxylate], for which the concentration for half-maximal inhibition (IC50) was determined as 7 nM on PI3K; 0.8 nM in the test with prostate line LNCap (Homo sapiens, LNCaP, 72 h); 14 nM with breast line MDA468 (Homo sapiens, 72 h).

`COC(=O)N1CCC(n2ncc3c(N4CCOCC4)nc(-c4ccc(NC(=O)OCCN(C)C)cc4)nc32)CC1` [Compound 904, methyl 4-{6-[4-({[2-(dimethylamino)ethoxy]carbonyl}amino)phenyl]-4-morpholin-4-yl-1H-pyrazolo[3,4-d]pyrimidin-1-yl}piperidine-1-carboxylate]: the IC50 at PI3K turned out to be 645 nM; with prostate line LNCap (Homo sapiens, LNCaP, 72 h), 2300 nM; in the test on breast line MDA468 (Homo sapiens, 72 h) it was 7800 nM.

For `CCOC(=O)N1CCC(n2ncc3c(N4CCOCC4)nc(-c4ccc(NC(=O)NC)cc4)nc32)CC1` [Compound 750, ethyl 4-(6-{4-[(methylcarbamoyl)amino]phenyl}-4-morpholin-4-yl-1H-pyrazolo[3,4-d]pyrimidin-1-yl)piperidine-1-carboxylate], the half-maximal inhibitory concentration (IC50) at PI3K came to 221 nM; in the test with prostate line LNCap (Homo sapiens, LNCaP, 72 h) it was 33 nM; in the test with breast line MDA468 (Homo sapiens, 72 h), 80 nM.

In the case of `O=C(C1CCCCC1)N1CCC(n2ncc3c(N4CCOCC4)nc(-c4cccc(O)c4)nc32)CC1` [Example 26], the IC50 on PI3K was found to be 68 nM; in the test with prostate line LNCap (Homo sapiens, LNCaP, 72 h), 1300 nM; in the test on breast line MDA468 (Homo sapiens, 72 h), 4000 nM.

Consider `CCNC(=O)Nc1ccc(-c2nc(N3CCOCC3)c3cnn(C4CCN(C(=O)OC(C)(C)C)CC4)c3n2)cc1` [Compound 764, tert-butyl 4-(6-{4-[(ethylcarbamoyl)amino]phenyl}-4-morpholin-4-yl-1H-pyrazolo[3,4-d]pyrimidin-1-yl)piperidine-1-carboxylate], for which the IC50 on PI3K was found to be 738 nM; in the test with prostate line LNCap (Homo sapiens, LNCaP, 72 h), 115 nM; with breast line MDA468 (Homo sapiens, 72 h), 370 nM.

In the case of `Oc1cccc(-c2nc(N3CCOCC3)c3cnn(CCN4CCOCC4)c3n2)c1` [Compound 165], the IC50 at PI3K was determined as 176 nM; in the test on prostate line LNCap (Homo sapiens, LNCaP, 72 h), 3000 nM; in the test on breast line MDA468 (Homo sapiens, 72 h), 12000 nM.

Turning to `NC(=O)Nc1ccc(-c2nc(N3CCOCC3)c3cnn(C4CCN(C(=O)c5ccccc5)CC4)c3n2)cc1` [Compound 627, 1-{4-[1-(1-benzoylpiperidin-4-yl)-4-morpholin-4-yl-1H-pyrazolo[3,4-d]pyrimidin-6-yl]phenyl}urea], the half-inhibitory concentration (IC50) on PI3K stood at 84 nM; in the test on prostate line LNCap, 170 nM; with breast line MDA468, 160 nM.

Consider `CC(C)(C)OC(=O)N1CCC(n2ncc3c(N4CCOCC4)nc(-c4ccc(NC(=O)Nc5cccnc5)cc4)nc32)CC1` [Compound 770, tert-butyl 4-(4-morpholin-4-yl-6-{4-[(pyridin-3-ylcarbamoyl)amino]phenyl}-1H-pyrazolo[3,4-d]pyrimidin-1-yl)piperidine-1-carboxylate], for which the 50% inhibitory concentration (IC50) was 56 nM on PI3K; 105 nM in the test on prostate line LNCap (Homo sapiens, LNCaP, 72 h); 260 nM in the test on breast line MDA468 (Homo sapiens, 72 h).

In the case of `Cc1cc(NC(=O)Nc2ccc(-c3nc(N4CCOCC4)c4cnn(C5CCN(C(=O)OC(C)(C)C)CC5)c4n3)cc2)on1` [Compound 883, tert-butyl 4-[6-(4-{[(3-methylisoxazol-5-yl)carbamoyl]amino}phenyl)-4-morpholin-4-yl-1H-pyrazolo[3,4-d]pyrimidin-1-yl]piperidine-1-carboxylate], the IC50 at PI3K came out at 160 nM; in the test on prostate line LNCap (Homo sapiens, LNCaP, 72 h), 270 nM; with breast line MDA468 (Homo sapiens, 72 h) it was 1300 nM.

Regarding `CCNC(=O)Nc1ccc(-c2nc(N3CCOCC3)c3cnn(C4CCN(CC(F)(F)F)CC4)c3n2)cc1` [Compound 782, 1-ethyl-3-(4-{4-morpholin-4-yl-1-[1-(2,2,2-trifluoroethyl)piperidin-4-yl]-1H-pyrazolo[3,4-d]pyrimidin-6-yl}phenyl)urea], the IC50 on PI3K stood at 766 nM; in the test on prostate line LNCap (Homo sapiens, LNCaP, 72 h), 60 nM; in the test on breast line MDA468 (Homo sapiens, 72 h) it was 300 nM.

As for `Fc1cc(F)cc(-c2nc(N3CCOCC3)c3cnn(C4CCN(Cc5ccccc5)CC4)c3n2)c1` [Compound 88], the IC50 at PI3K is 2190 nM; in the test with prostate line LNCap (Homo sapiens, LNCaP, 72 h), 60000 nM; in the test on breast line MDA468 (Homo sapiens, 72 h), 58000 nM.

On to `CCOC(=O)N1CCC(n2ncc3c(N4CCOC[C@@H]4C)nc(-c4ccc(NC(=O)NCCF)cc4)nc32)CC1` [Compound 895, ethyl 4-{6-(4-{[(2-fluoroethyl)carbamoyl]amino}phenyl)-4-[(3S)-3-methylmorpholin-4-yl]-1H-pyrazolo[3,4-d]pyrimidin-1-yl}piperidine-1-carboxylate], for which the concentration for half-maximal inhibition (IC50) at PI3K is 521 nM; in the test on prostate line LNCap (Homo sapiens, LNCaP, 72 h) it was 100 nM; in the test with breast line MDA468 (Homo sapiens, 72 h), 950 nM.

In the case of `COC(=O)Nc1ccc(-c2nc(N3CCOCC3)c3cnn(C4CCN(CC(=O)c5ccccc5)CC4)c3n2)cc1` [Compound 457, methyl (4-{4-morpholin-4-yl-1-[1-(2-oxo-2-phenylethyl)piperidin-4-yl]-1H-pyrazolo[3,4-d]pyrimidin-6-yl}phenyl)carbamate], the 50% inhibitory concentration (IC50) at PI3K turned out to be 585 nM; in the test on prostate line LNCap (Homo sapiens, LNCaP, 72 h), 500 nM; in the test on breast line MDA468 (Homo sapiens, 72 h), 1800 nM.

As for `CNC(=O)Nc1ccc(-c2nc(N3CCOCC3)c3cnn(C4CCN(Cc5cccnc5)CC4)c3n2)cc1F` [Example 350, 1-(2-fluoro-4-{4-morpholin-4-yl-1-[1-(pyridin-3-ylmethyl)piperidin-4-yl]-1H-pyrazolo[3,4-d]pyrimidin-6-yl}phenyl)-3-methylurea], the IC50 on PI3K is 246 nM; with prostate line LNCap (Homo sapiens, LNCaP, 72 h) it was 27 nM; with breast line MDA468 (Homo sapiens, 72 h), 200 nM.

Take `CNCCOC(=O)N1CCC(n2ncc3c(N4CCOCC4)nc(-c4ccc(NC(=O)NC)cc4)nc32)CC1` [Compound 802, 2-(methylamino)ethyl 4-(6-{4-[(methylcarbamoyl)amino]phenyl}-4-morpholin-4-yl-1H-pyrazolo[3,4-d]pyrimidin-1-yl)piperidine-1-carboxylate]: the IC50 was 181 nM on PI3K; 10000 nM in the test on prostate line LNCap (Homo sapiens, LNCaP, 72 h); 5500 nM in the test on breast line MDA468 (Homo sapiens, 72 h).

Regarding `CC(C)(C)OC(=O)N1CCC[C@H](n2ncc3c(N4CCOCC4)nc(-c4ccc(N)cc4)nc32)C1` [Compound 870, tert-butyl (3S)-3-[6-(4-aminophenyl)-4-morpholin-4-yl-1H-pyrazolo[3,4-d]pyrimidin-1-yl]piperidine-1-carboxylate], the IC50 stood at 549 nM at PI3K; 7600 nM in the test on prostate line LNCap (Homo sapiens, LNCaP, 72 h); 26000 nM with breast line MDA468 (Homo sapiens, 72 h).

For `CNC(=O)Nc1ccc(-c2nc(N3CCOCC3)c3cnn(C4CCN(Cc5ccc(OC)c(O)c5)CC4)c3n2)cc1` [Example 398, 1-(4-{1-[1-(3-hydroxy-4-methoxybenzyl)piperidin-4-yl]-4-morpholin-4-yl-1H-pyrazolo[3,4-d]pyrimidin-6-yl}phenyl)-3-methylurea], the 50% inhibitory concentration (IC50) was 57 nM at PI3K; 150 nM with prostate line LNCap (Homo sapiens, LNCaP, 72 h); 600 nM with breast line MDA468 (Homo sapiens, 72 h).

As to `CCCOC(=O)N1CCC(n2ncc3c(N4CCOCC4)nc(-c4ccc(NC(=O)NCCO)cc4)nc32)CC1` [Compound 855, propyl 4-[6-(4-{[(2-hydroxyethyl)carbamoyl]amino}phenyl)-4-morpholin-4-yl-1H-pyrazolo[3,4-d]pyrimidin-1-yl]piperidine-1-carboxylate], the IC50 came out at 186 nM on PI3K; 430 nM with prostate line LNCap (Homo sapiens, LNCaP, 72 h); 330 nM in the test with breast line MDA468 (Homo sapiens, 72 h).

For the molecule `NNC(=O)Nc1ccc(-c2nc(N3CCOCC3)c3cnn(C4CCN(C(=O)c5cccnc5)CC4)c3n2)cc1` [Example 306, N-(4-{4-morpholin-4-yl-1-[1-(pyridin-3-ylcarbonyl)piperidin-4-yl]-1H-pyrazolo[3,4-d]pyrimidin-6-yl}phenyl)hydrazinecarboxamide], the half-inhibitory concentration (IC50) was 398 nM on PI3K; 10000 nM in the test on prostate line LNCap (Homo sapiens, LNCaP, 72 h); 14000 nM with breast line MDA468 (Homo sapiens, 72 h).

As to `CS(=O)(=O)Nc1cccc(-c2nc(N3CCOCC3)c3cnn(C4CCN(Cc5ccccc5)CC4)c3n2)c1` [Compound 84], the IC50 on PI3K was 4200 nM; with prostate line LNCap (Homo sapiens, LNCaP, 72 h), 12000 nM; with breast line MDA468 (Homo sapiens, 72 h), 12000 nM.

As to `c1cc2cc(-c3nc(N4CCOCC4)c4cnn(C5CCC(N6CCCC6)CC5)c4n3)ccc2[nH]1` (stereo not drawn) [Compound 151], the IC50 amounted to 1270 nM on PI3K; 520 nM with prostate line LNCap (Homo sapiens, LNCaP, 72 h); 2300 nM in the test with breast line MDA468 (Homo sapiens, 72 h).

Take `COC(=O)N1CCC(n2ncc3c(N4CCOCC4)nc(-c4ccc(NC(=O)Nc5ccc(CCN6CCNCC6)cc5)cc4)nc32)CC1` [Compound 916, methyl 4-{4-morpholin-4-yl-6-[4-({[4-(2-piperazin-1-ylethyl)phenyl]carbamoyl}amino)phenyl]-1H-pyrazolo[3,4-d]pyrimidin-1-yl}piperidine-1-carboxylate]: the IC50 on PI3K is 20 nM; with prostate line LNCap (Homo sapiens, LNCaP, 72 h), 1.3 nM; in the test with breast line MDA468 (Homo sapiens, 72 h), 110 nM.

On to `c1ccc(N2CCC(n3ncc4c(N5CCOCC5)nc(-c5ccc6[nH]ccc6c5)nc43)CC2)nc1` [Compound 217, 6-(1H-indol-5-yl)-4-morpholin-4-yl-1-(1-pyridin-2-ylpiperidin-4-yl)-1H-pyrazolo[3,4-d]pyrimidine], for which the half-maximal inhibitory concentration (IC50) on PI3K came to 1400 nM; in the test on prostate line LNCap (Homo sapiens, LNCaP, 72 h), 1200 nM; with breast line MDA468 (Homo sapiens, 72 h), 1900 nM.

As for `COc1ccc(C(=O)N2CCC(n3ncc4c(N5CCOCC5)nc(-c5cccc(O)c5)nc43)CC2)cc1` [Compound 28, 3-{1-[1-(4-methoxybenzoyl)piperidin-4-yl]-4-morpholin-4-yl-1H-pyrazolo[3,4-d]pyrimidin-6-yl}phenol], the IC50 at PI3K was 33 nM; in the test on prostate line LNCap (Homo sapiens, LNCaP, 72 h), 220 nM; in the test with breast line MDA468 (Homo sapiens, 72 h) it was 1100 nM.
